Laboratory results: ChEMBL document CHEMBL1201862, “PubChem BioAssay data set” (2004)
The source made the active and inactive calls.

What was measured:
[1] = Trypanosoma cruzi growth suppression in host cells – NIH3T3 host cells, beta-gal luminescence, confirmation (AID 2044); assay type: functional, cell-based;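 also: intracellular parasites grown in NIH/3T3 mouse fibroblasts as host cells; luminescent beta-galactosidase reporter signal from transgenic T. cruzi replicating inside host cells; inhibitors lower the luminescence signal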
[2] = NIH3T3 cell viability loss – ATP luminescence, mouse fibroblasts, counter-screen, dose response (AID 2010); assay type: functional, cell-based;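 also: cells exposed to compound for about 90 hours before reading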
[3] = Luminescence Cell-Based Dose Response HTS to Identify Activators of Luciferase Translation or Activity in H4 […] Cells. [Related pubchem assays: 1829 (Project Summary), 1814 (Primary HTS)]; assay type: functional
H4 = assay: Luminescence Cell-Based Dose Response HTS to Identify Activators of 5'UTR Stem-Loop Driven Prion Protein mRNA Translation in H4 Neuroglioblastoma Cells. [Related pubchem assays: 1829 (Project Summary), 1814 (Primary HTS)]; assay type: functional; conditions: Homo sapiens
[4] = tested on: Streptococcus sp. 'group A'; assay: Streptococcus pyogenes SK(-)GAS viability under kanamycin – luminescence, BacTiterGlo, confirmation, counter-screen for streptokinase expression inhibitor project, dose response (AID 1900); assay type: functional, organism-based
Streptokinase A = biological target: T1, Streptokinase A (Streptococcus pyogenes serotype M1, UniProt P10520); assay: viability-normalized secreted streptokinase activity reduction – plasminogen activation absorbance, OD405, dose response (AID 1914); assay type: functional, Streptococcus pyogenes M1 GAS;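 also: secreted streptokinase activity via plasminogen activation per viability signal from cell pellet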
T1 sequence (P10520 whole entry): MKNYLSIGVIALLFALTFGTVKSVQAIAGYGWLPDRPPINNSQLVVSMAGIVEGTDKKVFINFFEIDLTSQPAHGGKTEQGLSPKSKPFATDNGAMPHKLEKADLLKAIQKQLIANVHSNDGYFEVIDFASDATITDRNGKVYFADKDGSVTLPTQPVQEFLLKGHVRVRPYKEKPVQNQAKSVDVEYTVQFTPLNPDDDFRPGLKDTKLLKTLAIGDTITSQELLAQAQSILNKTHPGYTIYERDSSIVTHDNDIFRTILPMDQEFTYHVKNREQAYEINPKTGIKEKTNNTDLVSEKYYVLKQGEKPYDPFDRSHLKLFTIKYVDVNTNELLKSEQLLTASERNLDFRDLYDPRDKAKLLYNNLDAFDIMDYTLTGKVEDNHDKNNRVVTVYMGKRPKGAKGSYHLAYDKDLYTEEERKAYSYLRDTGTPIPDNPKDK

Streptococcus = assay: GAS UMAA2166 growth inhibition – luminescence, BacTiterGlo, counter-screen for streptokinase expression inhibitor project, dose response (AID 1915); assay type: functional, organism-based;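 also: potency for reduction of bacterial viability or growth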
Cytochrome P450 2D6 = Cytochrome P450 2D6 (Homo sapiens, UniProt P10635);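 also: CYP2D6 member of a cytochrome P450 panel assay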
Cytochrome P450 3A4 = Cytochrome P450 3A4 (Homo sapiens, UniProt P08684);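 also: CYP3A4 tested as one member of a cytochrome P450 panel screen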
Cytochrome P450 2C19 = Cytochrome P450 2C19 (Homo sapiens, UniProt P33261); assay: Cytochrome panel assay with activity outcomes. Panel member name: p450-cyp2c19 Compounds with AC50 equal or less than 10 uM are considered active; assay type: functional
Cytochrome P450 2C19, sequence (P33261 whole entry): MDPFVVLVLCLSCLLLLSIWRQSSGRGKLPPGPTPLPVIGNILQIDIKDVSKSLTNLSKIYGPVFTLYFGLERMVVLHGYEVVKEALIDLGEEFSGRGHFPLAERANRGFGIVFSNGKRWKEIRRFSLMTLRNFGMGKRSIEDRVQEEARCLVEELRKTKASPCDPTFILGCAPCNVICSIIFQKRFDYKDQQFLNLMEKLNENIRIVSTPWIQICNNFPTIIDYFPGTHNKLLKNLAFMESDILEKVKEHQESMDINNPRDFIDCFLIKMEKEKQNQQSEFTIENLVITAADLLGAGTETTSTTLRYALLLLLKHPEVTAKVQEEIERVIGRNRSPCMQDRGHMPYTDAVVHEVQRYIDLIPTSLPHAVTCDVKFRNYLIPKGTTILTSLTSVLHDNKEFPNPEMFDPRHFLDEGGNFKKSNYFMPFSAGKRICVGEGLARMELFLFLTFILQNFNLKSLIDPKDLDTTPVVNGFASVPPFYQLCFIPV

Cytochrome P450 3A4, sequence (P08684 whole entry): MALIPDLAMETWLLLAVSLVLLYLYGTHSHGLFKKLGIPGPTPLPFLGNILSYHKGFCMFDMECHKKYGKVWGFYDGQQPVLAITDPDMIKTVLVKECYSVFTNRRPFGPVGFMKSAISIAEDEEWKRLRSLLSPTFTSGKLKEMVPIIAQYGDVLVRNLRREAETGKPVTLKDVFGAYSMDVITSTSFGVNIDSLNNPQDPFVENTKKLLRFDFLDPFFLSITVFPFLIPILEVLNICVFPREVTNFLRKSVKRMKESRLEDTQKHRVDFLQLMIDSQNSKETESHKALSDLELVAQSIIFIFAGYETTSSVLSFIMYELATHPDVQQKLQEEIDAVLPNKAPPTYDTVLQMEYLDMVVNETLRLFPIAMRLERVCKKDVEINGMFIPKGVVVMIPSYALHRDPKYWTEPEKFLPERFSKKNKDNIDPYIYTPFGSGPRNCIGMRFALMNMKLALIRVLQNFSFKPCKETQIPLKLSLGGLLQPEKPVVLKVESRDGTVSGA
Cytochrome P450 2D6, sequence (P10635 whole entry): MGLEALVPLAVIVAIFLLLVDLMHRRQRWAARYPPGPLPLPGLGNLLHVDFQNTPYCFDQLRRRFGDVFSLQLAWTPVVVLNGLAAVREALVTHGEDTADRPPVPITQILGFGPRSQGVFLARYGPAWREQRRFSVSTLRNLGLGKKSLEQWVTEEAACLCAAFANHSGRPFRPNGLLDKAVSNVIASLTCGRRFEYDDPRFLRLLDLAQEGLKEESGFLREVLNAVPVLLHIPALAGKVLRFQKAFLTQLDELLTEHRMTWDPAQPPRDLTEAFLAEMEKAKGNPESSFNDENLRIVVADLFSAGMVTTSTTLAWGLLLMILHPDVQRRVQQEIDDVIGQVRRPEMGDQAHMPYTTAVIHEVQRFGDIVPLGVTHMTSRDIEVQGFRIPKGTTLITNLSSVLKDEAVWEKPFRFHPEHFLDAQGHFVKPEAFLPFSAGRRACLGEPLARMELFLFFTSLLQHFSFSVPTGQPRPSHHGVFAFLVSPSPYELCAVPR

Cc1cc2nc(CCN(Cc3cccnc3)C(S)=Nc3ccc(F)cc3)[nH]c2cc1C
EC50 [1]: 0.844 µM (active)
EC50 [2]: > 30 µM (not active)

Cc1ccc(-c2onc3ccc(C4OCCO4)cc23)cc1
EC50 [3]: 28.4 µM (active)
EC50 (H4): 25 µM (active)

O=C(CSc1cccc[n+]1[O-])c1cc2ccccc2o1
EC50 [1]: 11.3 µM (active)
EC50 [2]: > 60 µM (not active)

O=C(NC(=S)Nc1ccc(N2CCOCC2)c(Cl)c1)c1cccs1
EC50 [4]: 11 µM (active)
EC50 (Streptokinase A): > 150 µM (not active)
EC50 (Streptococcus): 15.8 µM (active)

COc1ccc(CN(C)S(=O)(=O)c2ccc3c(c2)OCCO3)cc1
EC50 [4]: > 150 µM (not active)
EC50 (Streptokinase A): > 150 µM (not active)
EC50 (Streptococcus): > 150 µM (not active)

O=C(CCc1nnc(CCCCc2ccccc2)o1)NCCc1cccnc1
EC50 [1]: 2.27 µM (active)
EC50 [2]: > 60 µM (not active)

CCN1CCN(c2ccc(S(=O)(=O)N3CCOCC3)cc2NC(=O)c2ccc(Cl)s2)CC1
EC50 [1]: 0.588 µM (active)
EC50 [2]: > 30 µM (not active)

Oc1ccc(Cc2cc(Cl)cc(Cl)c2O)cc1Cl
AC50 (Cytochrome P450 2D6): 7.94 µM (inconclusive)
AC50 (Cytochrome P450 3A4): 3.98 µM (inconclusive)

Cc1ccc(C(=O)N(C)c2ccc(OCC(=O)N3c4ccc(C)cc4C4CN(C)CCC43)cc2)cc1 (centres undefined)
EC50 [1]: 0.527 µM (active)
EC50 [2]: > 60 µM (not active)

COc1ccc(/C=C2\Sc3ccc(C(=O)N4CCCC4)cc3N(C)C2=O)cc1OC
EC50 [4]: 0.555 µM (active)
EC50 (Streptokinase A): > 150 µM (not active)
EC50 (Streptococcus): 8.27 µM (active)

Cc1sc2c(c1C)c(=O)n(-c1ccccc1)c1nnc(C)n21
AC50 (Cytochrome P450 2C19; read-out: AC50): 8.91 µM (inconclusive)

COc1ccc(-c2ccc(C(=S)N3CCN(C(C)=O)CC3)o2)cc1
AC50 (Cytochrome P450 2D6): 28.2 µM (inconclusive)

O=S(=O)(Cc1cc(Sc2ccc(Cl)cc2)nc(-c2ccccc2)n1)c1ccccc1
EC50 [1]: 2.93 µM (active)
EC50 [2]: > 60 µM (not active)

Fc1ccc(Br)cc1C1C=C(c2ccc(Br)s2)Nc2ncnn21 (centres undefined)
EC50 [4]: 4.65 µM (active)
EC50 (Streptokinase A): > 150 µM (not active)
EC50 (Streptococcus): 24.3 µM (active)

COC(=O)Cc1c[nH]c2cccc(OCC(O)CN(Cc3ccc([N+](=O)[O-])cc3)C(C)(C)C)c12 (centres undefined)
EC50 [1]: 2.83 µM (active)
EC50 [2]: > 60 µM (not active)

CNC(=O)c1sc(SC)cc1-c1ccc(Cl)cc1
AC50 (Cytochrome P450 2D6): 25.1 µM (inconclusive)

OC(COCCC12CC3CC(CC(C3)C1)C2)CN1CCCCC1 (centres undefined)
EC50 [1]: 0.228 µM (active)
EC50 [2]: > 60 µM (not active)

COc1ccc(C(=O)NCC(c2ccc(F)cc2)N2CCOCC2)cc1S(=O)(=O)N1CCCC1 (centres undefined)
AC50 (Cytochrome P450 2D6): 15.8 µM (inconclusive)

O=S(=O)(Nc1ccc(N=Nc2ccc(O)c3ccccc23)cc1)c1ccccc1
EC50 [4]: 7.71 µM (active)
EC50 (Streptokinase A): 18.7 µM (active)
EC50 (Streptococcus): 41.5 µM (active)

Cn1c(=O)c(C(=O)NNC(=O)c2ccccc2Br)c(O)c2ccccc21
EC50 [4]: 4.72 µM (active)
EC50 (Streptokinase A): > 150 µM (not active)
EC50 (Streptococcus): 18.7 µM (active)

CCOC(=O)C1CCCN(c2ncnc3c2cnn3-c2cccc(C)c2)C1 (centres undefined)
AC50 (Cytochrome P450 2C19; read-out: AC50): 20 µM (inconclusive)
AC50 (Cytochrome P450 3A4): 28.2 µM (inconclusive)

CCc1ccc(Oc2nc([N+](=O)[O-])nn2C)cc1
EC50 [1]: 0.438 µM (active)
EC50 [2]: > 30 µM (not active)

Cc1[nH]c2ccccc2c1C(=O)CSc1nc2ccccc2c(=O)n1CCCN1CCOCC1
EC50 [3]: > 120 µM (not active)
EC50 (H4): > 120 µM (not active)

CN(Cc1ccccc1)C(=O)C1CCCN(Cc2cccc(Cl)c2)C1 (centres undefined)
EC50 [1]: 0.11 µM (active)
EC50 [2]: > 60 µM (not active)

COC(=O)Cc1c(OC)ccn(CCc2c[nH]c3ccccc23)c1=O
EC50 (H4): > 120 µM (not active)

COCCn1c(=O)c(-c2cccs2)nc2cnc(Oc3ccc(OC)cc3)nc21
AC50 (Cytochrome P450 2C19; read-out: AC50): 15.8 µM (inconclusive)

CC(C)C[C@@H](N)C(=O)Nc1ccc2ccccc2c1
AC50 (Cytochrome P450 2C19; read-out: AC50): 2.51 µM (inconclusive)
AC50 (Cytochrome P450 2D6): 3.16 µM (inconclusive)
AC50 (Cytochrome P450 3A4): 2.51 µM (inconclusive)

CC(CCc1ccccc1)N1CCN(Cc2ccccc2)CC1 (centres undefined)
EC50 [1]: 0.101 µM (active)
EC50 [2]: 10.2 µM (active)

C=CCNC(=O)c1ccccc1NC(=O)c1ccc(Cl)c(S(=O)(=O)Nc2cc(C)ccc2C)c1
EC50 [4]: 24.8 µM (active)
EC50 (Streptokinase A): 41.7 µM (active)
EC50 (Streptococcus): > 150 µM (not active)

c1ccc(COc2ccc(-c3csnn3)cc2)cc1
EC50 [3]: 0.11 µM (active)
EC50 (H4): 1.64 µM (active)

O=c1c(-c2ccc(F)cc2)nc2cnc(N3CCNCC3)nc2n1C1CC1
AC50 (Cytochrome P450 2C19; read-out: AC50): 39.8 µM (inconclusive)

O=c1c(-c2ccc(Cl)cc2)nc2cnc(N3CCNCC3)nc2n1Cc1cccs1
AC50 (Cytochrome P450 2C19; read-out: AC50): 25.1 µM (inconclusive)

C[C@H]1CC[C@@]2(NC1)O[C@@H]1C[C@H]3[C@@H]4CC[C@@H]5C[C@@H](O)CC[C@@]5(C)[C@@H]4CC[C@]3(C)[C@@H]1[C@@H]2C
AC50 (Cytochrome P450 2C19): inconclusive

COc1cc([N+](=O)[O-])c(N2CCOCC2)c([N+](=O)[O-])c1OC
EC50 [1]: 7.53 µM (active)
EC50 [2]: > 60 µM (not active)

Cc1ccc(C(=N)NOC(=O)CSc2ccccc2)cc1
EC50 [3]: 0.514 µM (active)

Cc1ccc(CN(C)CCc2ccccn2)cc1
EC50 [1]: 0.309 µM (active)
EC50 [2]: > 60 µM (not active)

CCCCN1C(=O)NC(=O)/C(=C(\C)Nc2ccc(OCC)cc2)C1=O
EC50 [4]: 8.66 µM (active)
EC50 (Streptokinase A): > 150 µM (not active)
EC50 (Streptococcus): 21.5 µM (active)

C=C(C)CNC(=S)NNC(=O)CCn1c2ccc(Cl)cc2c2cc(Cl)ccc21
EC50 (Streptokinase A): > 150 µM (not active)

CNc1ncnc2ccc(-c3ccccc3CN(C)C)cc12
AC50 (Cytochrome P450 2C19; read-out: AC50): 20 µM (inconclusive)

CN(C)c1ccc(-c2cncnc2NCc2ccccc2)cc1
AC50 (Cytochrome P450 2D6): 39.8 µM (inconclusive)

COC(=O)C1CCN(CC(=O)Nc2cc(Cl)ccc2OC)CC1
EC50 [1]: 4.18 µM (active)
EC50 [2]: > 30 µM (not active)

COc1ccc(C(CNC(=O)c2cccc(S(=O)(=O)Nc3ccccc3Cl)c2)N2CCOCC2)cc1 (centres undefined)
EC50 (Streptokinase A): > 150 µM (not active)
EC50 (Streptococcus): 104 µM (active)

COCCNc1nc(-c2c(C)noc2C)nc2ccccc12
AC50 (Cytochrome P450 3A4): 15.8 µM (inconclusive)

CCC(C)C(=O)N1CCCC(c2nc(-c3cccs3)no2)C1 (centres undefined)
EC50 [3]: > 120 µM (not active)
EC50 (H4): 71.6 µM (active)

O=[N+]([O-])c1cccc(-c2nc(-c3ccccc3)c(-c3cccs3)[nH]2)c1
AC50 (Cytochrome P450 2D6): 4.47 µM (inconclusive)

c1ccc(COc2ccccc2CNCc2cccnc2)cc1
EC50 [1]: 8.11 µM (active)
EC50 [2]: > 60 µM (not active)

c1ccc(CN2CCN(c3nc4ccccc4c4ccccc34)CC2)cc1
EC50 [4]: 15.9 µM (active)
EC50 (Streptokinase A): 14.9 µM (active)
EC50 (Streptococcus): > 150 µM (not active)

OC(COCC1COc2ccccc2O1)CN1CCc2ccccc2C1 (centres undefined)
AC50 (Cytochrome P450 3A4): 17.8 µM (inconclusive)

CC(C)N1CCc2c(sc(NC(=O)CCS(=O)(=O)c3ccccc3)c2C#N)C1
EC50 [4]: > 150 µM (not active)
EC50 (Streptokinase A): > 150 µM (not active)
EC50 (Streptococcus): > 150 µM (not active)

COc1ccc(-n2c(=O)c(C)nc3cnc(N(C)C)nc32)cc1
AC50 (Cytochrome P450 3A4): 20 µM (inconclusive)

CCOC(=O)CC(NC(=O)c1cccs1)c1ccc(OCC)cc1 (centres undefined)
AC50 (Cytochrome P450 2D6): 14.1 µM (inconclusive)

CC(=O)Nc1ccc(S(=O)(=O)N2CCC(N(C)CCC(C)C)CC2)cc1
AC50 (Cytochrome P450 2C19; read-out: AC50): 25.1 µM (inconclusive)

CN(C)/C=N/c1cnc(C(=O)c2ccc(Cl)cc2)n1C
EC50 (H4): 0.52 µM (active)

CCSC(=N)Nc1ccc(C(F)(F)F)cc1
AC50 (Cytochrome P450 2C19; read-out: AC50): 20 µM (inconclusive)
AC50 (Cytochrome P450 3A4): 39.8 µM (inconclusive)

CCOC(=O)c1c2c(n3ccccc13)C(=O)c1ccccc1C2=O
AC50 (Cytochrome P450 3A4): 3.16 µM (inconclusive)

COc1ccccc1CNc1ncncc1-c1ccc(C(=O)N(C)C)cc1
AC50 (Cytochrome P450 2D6): 39.8 µM (inconclusive)

CCOc1ccc(Nc2nc(N3CCCCC3)nc(N3CCCCC3)n2)cc1
EC50 [4]: 0.648 µM (active)
EC50 (Streptokinase A): > 150 µM (not active)
EC50 (Streptococcus): 54.1 µM (active)
